From patent US20040044177A1, “Peptide compounds having improved binding affinity to somatostatin receptors” (priority 2002, published 2004)
Bridge positions count the residues as written; N and C are the ends. Square brackets hold non-standard residues; d marks the D form. Peptide text beside a SMILES is read from it. * marks the point of attachment. DOTA = O=C(O)CN1CCN(CC(=O)O)CCN(CC(=O)*)CCN(CC(=O)O)CC1; 1Nal = N[C@@H](Cc1cccc2ccccc12)C(=O)O; Bta = N[C@@H](Cc1csc2ccccc12)C(=O)O; Thr(ol) = C[C@@H](O)[C@H](N)CO

Tests used:
[1] = target: T1, human somatostatin receptor subtype hsst3 (Homo sapiens, UniProt P32745); test: In vitro binding affinity, transfected cell lines, hsst 3; parameters: expressed in transfected cells; details: compared with cpd. 6 (Y-DOTA-LAN)
[2] = target: T2, somatostatin human receptor subtype (hsst) 2 (Homo sapiens, UniProt P30874); test: In vitro binding affinity, transfected cell lines, hsst 2; details: compared with compound 7 (Y-DOTA-TOC)
T2 construct: expressed in transfected cells

[3] = target: human somatostatin receptor subtype hsst5 (Homo sapiens, UniProt P35346); test: In vitro binding affinity of peptide analogs (Table III), hsst5; details: DOTA complexed with stable Y or In
Experimental: (§1) IC50 values were determined as described by Reubi et al. (Eur J Nuc Med 28:836-846, 2001).

[4] = target: T1, human somatostatin receptor subtype hsst3; test: In vitro binding affinity of peptide analogs (Table III), hsst3; details: DOTA complexed with stable Y or In
Experimental: Table III, presents the binding affinity of the new compounds to human somatostatin receptor subtypes as compared to the compound, Y-DOTA-TATE, described by Srinivasan et al. (U.S. Pat. No. 5,830,431).
as §1

T1 sequence (P32745 whole entry): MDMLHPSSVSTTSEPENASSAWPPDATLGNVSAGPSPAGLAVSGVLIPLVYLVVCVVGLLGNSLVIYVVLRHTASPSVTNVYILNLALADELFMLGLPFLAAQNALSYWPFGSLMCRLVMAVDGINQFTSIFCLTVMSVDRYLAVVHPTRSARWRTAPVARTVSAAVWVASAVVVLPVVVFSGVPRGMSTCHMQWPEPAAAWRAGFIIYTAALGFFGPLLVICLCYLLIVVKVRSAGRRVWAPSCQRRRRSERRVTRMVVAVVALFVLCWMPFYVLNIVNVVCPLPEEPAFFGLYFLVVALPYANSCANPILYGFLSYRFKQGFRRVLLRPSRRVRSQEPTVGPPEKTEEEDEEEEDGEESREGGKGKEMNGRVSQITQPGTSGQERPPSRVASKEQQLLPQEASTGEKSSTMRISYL
T2 sequence (P30874 whole entry): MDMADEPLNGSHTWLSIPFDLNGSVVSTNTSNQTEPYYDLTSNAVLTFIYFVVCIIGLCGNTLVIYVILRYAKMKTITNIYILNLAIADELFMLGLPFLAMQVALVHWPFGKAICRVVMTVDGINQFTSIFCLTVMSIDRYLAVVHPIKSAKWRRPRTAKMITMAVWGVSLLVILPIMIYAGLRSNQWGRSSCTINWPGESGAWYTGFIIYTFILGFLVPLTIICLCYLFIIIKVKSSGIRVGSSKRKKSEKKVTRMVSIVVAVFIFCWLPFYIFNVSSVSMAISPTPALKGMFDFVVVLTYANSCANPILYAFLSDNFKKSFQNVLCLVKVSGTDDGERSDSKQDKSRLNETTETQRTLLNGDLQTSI
Sequence of human somatostatin receptor subtype hsst5 (P35346 whole entry): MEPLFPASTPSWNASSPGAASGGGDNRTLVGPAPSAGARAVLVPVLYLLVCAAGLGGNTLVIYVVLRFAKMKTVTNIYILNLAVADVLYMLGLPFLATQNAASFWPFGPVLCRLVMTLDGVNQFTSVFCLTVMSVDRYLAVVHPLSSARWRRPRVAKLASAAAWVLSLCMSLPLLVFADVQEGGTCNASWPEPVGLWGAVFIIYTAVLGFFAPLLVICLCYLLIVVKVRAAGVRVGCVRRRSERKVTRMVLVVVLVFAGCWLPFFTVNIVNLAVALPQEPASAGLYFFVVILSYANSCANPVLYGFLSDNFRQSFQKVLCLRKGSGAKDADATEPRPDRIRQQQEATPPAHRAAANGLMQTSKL

| affinity to sst 3 relative to cpd. 6 [1] | binding affinity to sst 2 relative to compound 7 [2] | IC50 [3] | IC50 [4] | SMILES |
| --- | --- | --- | --- | --- |
| approx. five times better | approx. three times better | – | – | C[C@@H](O)[C@@H]1NC(=O)[C@H](CCCCN)NC(=O)[C@@H](Cc2c[nH]c3ccccc23)NC(=O)[C@H](Cc2cccc3ccccc23)NC(=O)[C@@H](NC(=O)[C@@H](Cc2ccccc2)NC(=O)CN2CCN(CC(=O)O)CCN(CC(=O)O)CCN(CC(=O)O)CC2)CSSC[C@@H](C(=O)N[C@H](CO)[C@@H](C)O)NC1=O [cpd. 8, ^90Y-labelled DOTA-(D)Phe-cyclo[Cys-(D) 1-Nal-(D)Trp-Lys-Thr-Cys]-Thr-ol, metal not drawn] ({DOTA}-[dF]C[1Nal][dW]KTC[Thr(ol)]; disulfide 2-7) |
| – | – | 65 nM | 170 nM | C[C@@H](O)[C@H](NC(=O)[C@@H]1CSSC[C@H](NC(=O)[C@@H](Cc2ccccc2)NC(=O)CN2CCN(CC(=O)O)CCN(CC(=O)O)CCN(CC(=O)O)CC2)C(=O)N[C@@H](Cc2ccc(O)c(I)c2)C(=O)N[C@H](Cc2c[nH]c3ccccc23)C(=O)N[C@@H](CCCCN)C(=O)N[C@@H]([C@@H](C)O)C(=O)N1)C(=O)O [compound 2] |
| – | approx. three times better | – | – | C[C@@H](O)[C@@H]1NC(=O)[C@H](CCCCN)NC(=O)[C@@H](Cc2c[nH]c3ccccc23)NC(=O)[C@H](Cc2csc3ccccc23)NC(=O)[C@@H](NC(=O)[C@@H](Cc2ccccc2)NC(=O)CN2CCN(CC(=O)O)CCN(CC(=O)O)CCN(CC(=O)O)CC2)CSSC[C@@H](C(=O)N[C@H](CO)[C@@H](C)O)NC1=O [cpd. 9, ^90Y-labelled DOTA-(D)Phe-cyclo[Cys-(D)3-benzothienylalanyl-(D)Trp-Lys-Thr-Cys]-Thr-ol, metal not drawn] ({DOTA}-[dF]C[Bta][dW]KTC[Thr(ol)]; disulfide 2-7) |
